Test results from US7998985B2, “1,5-diphenyl-3-pyridinylamino-1,5-dihydropyrrolidin-2-one as CB1 receptor modulator” (Eli Lilly and Company, priority 2006, dated 2011).

Tests used:
human CB2 receptor = molecular target: T1, human CB2 receptor (Homo sapiens, UniProt P34972); assay: GTP-γ-35S binding, agonist mode, human CB2 (Sf9 membranes); type: biochemical
T1 construct: purchased Applied Cell Sciences, Gaithersburg, Md; PerkinElmer Life Sciences, Boston, Mass; host or cells: Sf9 insect cells (recombinant expression), membranes

male Sprague-Dawley rats = assay: Microdialysis of monoamines and metabolites in prefrontal cortex; type: in vivo; settings: rat prefrontal cortex microdialysate; doses as low as 1 mg/kg, p.o.
Method: Methods: Implant male Sprague-Dawley rats (260-300 g, Taconic Farms, Germantown, N.Y.) with a cannula (BAS, West Lafayette, Ind.) in the prefrontal cortex (PFC) 5-7 days before the experiment. Insert a concentric type probe with a 4 mm membrane tip extending below the cannula through the cannula about 16 hours before the experiment began and collect the microdialysate from prefrontal cortex and analyze for monoamines and their metabolites. Calculate all microdialysis data as percent change from dialysate basal concentrations with 100% defined as the average of the final three drug pre-injection values and each group having 5-6 rats. Analyze data with ANOVA and follow by a post-hoc Bonferroni test.

[1] = test system: diet-induced obese (DIO) male Long-Evans rats; assay: Feeding model in diet-induced obese (DIO) rats, 14 days; type: in vivo, rat
Text: Methods: Administer Example 2 to diet-induced obese (DIO) male Long-Evans rats. Establish DIO by ad lib feeding from weanling of a diet consisting of 40% fat, 39% carbohydrate and 21% protein caloric content for at least 12 weeks. Define compound potency by T17 (the dose required to produce a difference from the vehicle group of 17 grams). This represents a minimally biologically relevant reduction of 3-4% of body weight compared to vehicle treatment after 2 weeks.

hCB1 = hCB1 (Homo sapiens, UniProt P21554); assay: GTP-γ-35S binding, agonist mode, human CB1 (Sf9 membranes); type: biochemical; set-up: purchased Applied Cell Sciences, Gaithersburg, Md; PerkinElmer Life Sciences, Boston, Mass; host or cells: Sf9 insect cells (recombinant expression), membranes
[2] = normalised to full agonist methanandamide

hCB1, sequence (P21554 whole entry): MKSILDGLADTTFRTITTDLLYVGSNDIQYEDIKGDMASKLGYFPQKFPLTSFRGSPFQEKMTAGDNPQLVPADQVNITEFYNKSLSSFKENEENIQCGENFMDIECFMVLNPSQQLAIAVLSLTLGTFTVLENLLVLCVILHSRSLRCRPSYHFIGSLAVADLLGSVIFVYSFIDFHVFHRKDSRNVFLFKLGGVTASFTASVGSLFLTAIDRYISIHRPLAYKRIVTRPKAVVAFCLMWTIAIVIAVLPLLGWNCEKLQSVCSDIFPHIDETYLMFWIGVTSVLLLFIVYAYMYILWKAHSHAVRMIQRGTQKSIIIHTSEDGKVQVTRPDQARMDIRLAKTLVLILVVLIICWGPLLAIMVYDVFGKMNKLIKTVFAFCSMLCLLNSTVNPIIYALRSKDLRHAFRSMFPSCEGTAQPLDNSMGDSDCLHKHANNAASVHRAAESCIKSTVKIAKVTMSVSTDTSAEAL
T1 sequence (P34972 whole entry): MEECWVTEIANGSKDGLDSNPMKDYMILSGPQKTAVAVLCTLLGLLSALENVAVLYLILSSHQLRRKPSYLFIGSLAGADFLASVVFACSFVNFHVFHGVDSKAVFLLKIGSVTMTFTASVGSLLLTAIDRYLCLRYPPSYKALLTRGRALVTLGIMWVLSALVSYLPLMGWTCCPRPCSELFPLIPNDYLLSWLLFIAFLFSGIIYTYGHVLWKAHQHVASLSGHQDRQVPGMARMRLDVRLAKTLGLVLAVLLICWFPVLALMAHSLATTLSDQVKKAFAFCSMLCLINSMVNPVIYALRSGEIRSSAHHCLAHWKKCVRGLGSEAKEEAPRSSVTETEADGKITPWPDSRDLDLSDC

Agonist Potency EC50 (nM) (human CB2 receptor): No measurable activity
Agonist Efficacy % (human CB2 receptor; [2]): 0%
Agonist Efficacy % (hCB1; [2]): −47.9 ± 4.7%
EC50 (hCB1; read-out: Agonist Potency EC50): 0.58 ± 0.05 nM
SMILES: CC(C)(N[C@@H]1C[C@H](c2cccc(OC(F)(F)F)c2)N(c2ccc(C(F)(F)F)cc2)C1=O)c1ccc(C(F)(F)F)nc1.Cc1ccc(S(=O)(=O)O)cc1 [Example 2, (3R,5R)-3-[1-methyl-1-(6-trifluoromethyl-pyridin-3-yl)-ethylamino]-1-(4-trifluoromethyl-phenyl)-5-(3-trifluoromethoxy-phenyl)-pyrrolidin-2-one, 4-methylbenzenesulfonate (1:1)]
cortical monoamine and metabolite levels (male Sprague-Dawley rats): Increase rat cortical monoamine and metabolite levels
fat free mass (QNMR) [1]: minimal changes in fat free mass at one of the highest doses
cumulative body weight ([1]; 14-day oral treatment): reduction of cumulative body weight
T17 (dose producing a 17 gram body weight difference from vehicle) ([1]; 14-day oral treatment, estimated): 0.13 mg/kg
efficacy dose (T17) for change in body mass from control ([1]; daily oral, 14 days, as restated): 0.13 mg/kg/day
fat mass (QNMR) ([1]; doses 0.1-10 mg/kg): significant reductions in fat mass
cumulative food intake ([1]; once daily orally, 14 days): Decrease cumulative food intake
